Laboratory results published in patent US6737383B1, “Herbicidal oxadiazolidines” (priority 1999, dated 2004).

How the values were obtained:
wheat = assay: Test B pre/postemergence wheat; type: in vivo, Triticum aestivum
Procedure, shortened: (§1)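 Herbicidal effect was estimated by eye on a ten-point control scale after plants spent twelve to sixteen days in a greenhouse following soil or foliar treatment. Foliar sprays targeted plants at one to four leaves; all doses were formulated in a non-phytotoxic solvent with surfactant.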

corn = assay: Test B pre/postemergence corn; type: in vivo, Zea mays
Procedure, shortened: as §1

cocklebur = assay: Test B pre/postemergence cocklebur; type: in vivo, Xanthium strumarium
Procedure, shortened: as §1

velvetleaf = assay: Test B pre/postemergence velvetleaf; type: in vivo, Abutilon theophrasti
Procedure, shortened: as §1

surinam grass = assay: Test B pre/postemergence surinam grass; type: in vivo, Brachiaria decumbens
Procedure, shortened: as §1

wild oat = assay: Test B pre/postemergence wild oat; type: in vivo, Avena fatua
Procedure, shortened: as §1

duck salad = assay: Test B flood test duck salad; type: in vivo, Heteranthera limosa
Procedure, shortened: (§2)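 Flood test on plants grown to the 2-leaf stage; treated plants kept in greenhouse twelve to sixteen days, then visually rated against controls on a 0 (no effect) to 10 (complete control) scale.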

giant foxtail = assay: Test B pre/postemergence giant foxtail; type: in vivo, Setaria faberii
Procedure, shortened: as §1

soybean = assay: Test B pre/postemergence soybean; type: in vivo, Glycine max
Procedure, shortened: as §1

smallflower flatsedge = assay: Test B flood test smallflower flatsedge; type: in vivo, Cyperus difformis
Procedure, shortened: as §2

morningglory = assay: Test B pre/postemergence morningglory; type: in vivo, Ipomoea hederacea
Procedure, shortened: as §1

blackgrass = assay: Test B pre/postemergence blackgrass; type: in vivo, Alopecurus myosuroides
Procedure, shortened: as §1

crabgrass = assay: Test B pre/postemergence crabgrass; type: in vivo, Digitaria sanguinalis
Procedure, shortened: as §1

bedstraw = assay: Test B pre/postemergence bedstraw; type: in vivo, Galium aparine
Procedure, shortened: as §1

rape = assay: Test B pre/postemergence rape; type: in vivo, Brassica napus
Procedure, shortened: as §1

bamyardgrass = assay: Test B flood test barnyardgrass; type: in vivo, Echinochloa crus-galli
Procedure, shortened: as §2

[1] = Postemergence, Rate 62 g/ha, scale 0 to 10, 0 is no effect, 10 is complete control
[2] = Postemergence, Rate 125 g/ha, scale of 0 to 10 where 0 is no effect and 10 is complete control
[3] = Preemergence, Rate 62 g/ha, scale of 0 to 10 where 0 is no effect and 10 is complete control
[4] = Preemergence, Rate 125 g/ha, scale of 0 to 10 where 0 is no effect and 10 is complete control
[5] = Preemergence, Rate 500 g/ha, scale of 0 to 10 where 0 is no effect and 10 is complete control
[6] = Rate 500 g/ha, Postemergence, scale 0 to 10, 0 is no effect, 10 is complete control
[7] = Postemergence, Rate 250 g/ha, scale of 0 to 10, 0 is no effect, 10 is complete control
[8] = Preemergence, Rate 250 g/ha, scale 0 to 10 (0 no effect, 10 complete control)
[9] = Rate 62 g/ha, flood test species, Pre-emergence, visual evaluation after twelve to sixteen days
[10] = Rate 125 g/ha, under heading Pre-emergence, flood test species, visual evaluation after twelve to sixteen days
[11] = Rate 250 g/ha, Pre-emergence (flood test species), scale 0 to 10, 0 is no effect, 10 is complete control
[12] = Rate 500 g/ha, Pre-emergence section of Table B, 0 to 10 scale (0 no effect, 10 complete control)

SMILES: CC(C)N(C(=O)n1oc(=O)n(CCCC#N)c1=O)c1ccc(F)cc1F [Compound 675]
- Plant response rating, Wheat (wheat; [1]): 0
- Wheat plant response rating (wheat; [2]): 3
- Wheat plant response rating (wheat; [3]): 0
- Plant response rating, Wheat (wheat; [4]): 2
- Plant response rating, Wheat (wheat; [5]): 9
- Wheat plant response rating (wheat; [6]): 7
- Plant response rating, Corn (corn; [1]): 0
- Corn plant response rating (corn; [2]): 0
- Corn plant response rating (corn; [7]): 0
- Corn plant response rating (corn; [3]): 0
- Plant response rating, Corn (corn; [4]): 3
- Plant response rating, Corn (corn; [8]): 6
- Plant response rating, Corn (corn; [5]): 9
- Corn plant response rating (corn; [6]): 6
- Plant response rating, Cocklebur (cocklebur; [1]): 0
- Cocklebur plant response rating (cocklebur; [2]): 3
- Cocklebur plant response rating (cocklebur; [7]): 3
- Cocklebur plant response rating (cocklebur; [3]): 0
- Plant response rating, Cocklebur (cocklebur; [4]): 0
- Plant response rating, Cocklebur (cocklebur; [8]): 0
- Plant response rating, Cocklebur (cocklebur; [5]): 0
- Cocklebur plant response rating (cocklebur; [6]): 3
- Plant response rating, Velvetleaf (velvetleaf; [1]): 0
- Velvetleaf plant response rating (velvetleaf; [2]): 2
- Velvetleaf plant response rating (velvetleaf; [3]): 6
- Plant response rating, Velvetleaf (velvetleaf; [4]): 7
- Plant response rating, Velvetleaf (velvetleaf; [5]): 10
- Velvetleaf plant response rating (velvetleaf; [6]): 8
- Plant response rating, B. signalgrass (surinam grass; [1]): 1
- B. signalgrass plant response rating (surinam grass; [2]): 4
- B. signalgrass plant response rating (surinam grass; [7]): 8
- B. signalgrass plant response rating (surinam grass; [3]): 4
- Plant response rating, B. signalgrass (surinam grass; [4]): 6
- Plant response rating, B. signalgrass (surinam grass; [8]): 8
- Plant response rating, B. signalgrass (surinam grass; [5]): 10
- B. signalgrass plant response rating (surinam grass; [6]): 8
- Plant response rating, Wild oats (wild oat; [1]): 0
- Wild oats plant response rating (wild oat; [2]): 0
- Wild oats plant response rating (wild oat; [3]): 4
- Plant response rating, Wild oats (wild oat; [4]): 5
- Plant response rating, Wild oats (wild oat; [5]): 10
- Wild oats plant response rating (wild oat; [6]): 7
- Plant response rating, Ducksalad (0 to 10 scale, 0 is no effect, 10 is complete control) (duck salad; [9]): 0
- Ducksalad plant response rating (0 to 10 scale, 0 is no effect, 10 is complete control) (duck salad; [10]): 0
- Ducksalad plant response rating (duck salad; [11]): 0
- Ducksalad plant response rating (duck salad; [12]): 0
- Plant response rating, Giant foxtail (giant foxtail; [1]): 8
- Giant foxtail plant response rating (giant foxtail; [2]): 9
- Giant foxtail plant response rating (giant foxtail; [7]): 9
- Giant foxtail plant response rating (giant foxtail; [3]): 9
- Plant response rating, Giant foxtail (giant foxtail; [4]): 10
- Plant response rating, Giant foxtail (giant foxtail; [5]): 10
- Giant foxtail plant response rating (giant foxtail; [6]): 9
- Plant response rating, Soybean (soybean; [1]): 4
- Soybean plant response rating (soybean; [2]): 5
- Soybean plant response rating (soybean; [3]): 0
- Plant response rating, Soybean (soybean; [4]): 0
- Plant response rating, Soybean (soybean; [5]): 4
- Soybean plant response rating (soybean; [6]): 5
- Plant response rating, S. Flatsedge (0 to 10 scale, 0 is no effect, 10 is complete control) (smallflower flatsedge; [9]): 0
- S. Flatsedge plant response rating (0 to 10 scale, 0 is no effect, 10 is complete control) (smallflower flatsedge; [10]): 0
- S. Flatsedge plant response rating (smallflower flatsedge; [11]): 0
- S. Flatsedge plant response rating (smallflower flatsedge; [12]): 0
- Plant response rating, Morningglory (morningglory; [1]): 1
- Morningglory plant response rating (morningglory; [2]): 2
- Morningglory plant response rating (morningglory; [7]): 2
- Morningglory plant response rating (morningglory; [3]): 0
- Plant response rating, Morningglory (morningglory; [4]): 0
- Plant response rating, Morningglory (morningglory; [5]): 6
- Morningglory plant response rating (morningglory; [6]): 4
- Plant response rating, Blackgrass (blackgrass; [1]): 5
- Blackgrass plant response rating (blackgrass; [2]): 5
- Blackgrass plant response rating (blackgrass; [7]): 7
- Blackgrass plant response rating (blackgrass; [3]): 5
- Plant response rating, Blackgrass (blackgrass; [4]): 9
- Plant response rating, Blackgrass (blackgrass; [8]): 9
- Plant response rating, Blackgrass (blackgrass; [5]): 10
- Blackgrass plant response rating (blackgrass; [6]): 9
- Plant response rating, Crabgrass (crabgrass; [1]): 6
- Crabgrass plant response rating (crabgrass; [2]): 8
- Crabgrass plant response rating (crabgrass; [7]): 9
- Crabgrass plant response rating (crabgrass; [3]): 6
- Plant response rating, Crabgrass (crabgrass; [4]): 7
- Plant response rating, Crabgrass (crabgrass; [8]): 9
- Plant response rating, Crabgrass (crabgrass; [5]): 10
- Crabgrass plant response rating (crabgrass; [6]): 9
- Plant response rating, Bedstraw (bedstraw; [1]): 0
- Bedstraw plant response rating (bedstraw; [2]): 1
- Bedstraw plant response rating (bedstraw; [7]): 6
- Bedstraw plant response rating (bedstraw; [3]): 0
- Plant response rating, Bedstraw (bedstraw; [4]): 2
- Plant response rating, Bedstraw (bedstraw; [8]): 10
- Plant response rating, Bedstraw (bedstraw; [5]): 10
- Plant response rating, Rape (rape; [1]): 0
- Rape plant response rating (rape; [2]): 0
- Rape plant response rating (rape; [3]): 2
- Plant response rating, Rape (rape; [4]): 3
- Plant response rating, Rape (rape; [5]): 10
- Rape plant response rating (rape; [6]): 3
- Plant response rating, Barnyardgrass (0 to 10 scale, 0 is no effect, 10 is complete control) (bamyardgrass; [9]): 0
- Barnyardgrass plant response rating (0 to 10 scale, 0 is no effect, 10 is complete control) (bamyardgrass; [10]): 0
- Barnyardgrass plant response rating (bamyardgrass; [11]): 0
- Barnyardgrass plant response rating (bamyardgrass; [12]): 0
